Results on 80 compounds are retold here after the METLIN SMRT retention time set (Domingo-Almenara et al. 2019).

This data set is described as follows: gradient 5% acetonitrile 3 min, to 50% in 2 min, to 85% in 15 min, held 3 min, 100 µL/min. Conditions: column: Zorbax Extend-C18 2.1 x 50 mm; eluents: water / acetonitrile, 0.1% formic acid. Summed up:
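Pure standards were analyzed in mixtures of ~100 molecules using HPLC coupled to a quadrupole time-of-flight mass spectrometer, in both positive and negative ionization mode. Separation used a Zorbax Extend-C18 column (2.1 × 50 mm, 1.8 μm) at 100 μL/min, with water and acetonitrile each containing 0.1% formic acid. Dead and dwell volumes were 40 μL and 900 μL, and data were collected over 3 months. Retention time was read from computationally picked adduct peaks, each inspected manually.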
`COc1cccc(CNC2=NCCNC23CCN(S(=O)(=O)c2ccccc2)CC3)c1` showed an RP-LC retention time of 678 s.
The result for `Cc1cc2c(=O)n(CC(=O)NCc3ccccc3F)ccc2s1` reads 732 s; that for `O=S(=O)(c1cc(F)ccc1F)N1CCc2nc(-c3ccc(Cl)cc3)ncc2C1`, 1210 s.
The compound `O=C(NCc1ccc(Cl)cc1)c1ccc2c(c1)nc1n2CCN(Cc2ccccn2)C1=O` displayed an RP-LC retention time of 675 s.
As for `COc1ccc(C)cc1NC(=O)Cn1nc2cc(C)nc(Nc3ccc(F)cc3)n2c1=O`, the RP-LC retention time was determined as 1100 s.
The compound `Cc1ccc(NC(=O)Cn2nc(N3CCCCCC3)c3ccccc3c2=O)c(C)c1` came in with an RP-LC retention time of 1100 s.
The figure for `Cc1ccc(CS(=O)(=O)N2CCc3nc(-c4ccc(F)cc4)ncc3C2)cc1` is 1110 s.
The result for `CCOC(=O)c1c(C)oc2ncnc(Nc3ccc4c(c3)OCCO4)c12` reads 1120 s.
On to `Cc1ccc(CNC(=O)c2cc3n(n2)CCCN(Cc2cccc(F)c2)C3=O)o1`, for which the RP-LC retention time turned out to be 853 s.
The figure for `CS(=O)(=O)N1CCCC1C(=O)Nc1ccc(F)cc1` (stereo not given) is 693 s; for `Cc1ccnn1-c1ccc(SCC(=O)Nc2ccc(F)cc2F)nn1` it is 893 s; for `O=C(N[C@H](Cc1ccccc1)C(=O)NCc1cscn1)c1cccc(Cl)c1` it is 806 s.
The result for `Cc1noc(-c2nc(Cc3cccc(F)c3)no2)n1` reads 940 s; that for `Cc1cccc(C)c1NC(=O)N(C)CC1CCOCC1`, 692 s; that for `COc1ccc(C(=O)N2CCCC2COc2ccc(C(=O)N3CCCC3)cc2)cc1` (stereo not given), 800 s.
`COc1ccccc1C(=O)Nc1c2c(nn1C(C)(C)C)CS(=O)(=O)C2` came in with an RP-LC retention time of 740 s.
The result for `COc1ccc(-c2nnc3n2CCN(Cc2ccccc2C#N)C3)cc1` reads 668 s.
Consider `CCOC(=O)C1=C(N)Oc2cc(C)n(CCN(C)C)c(=O)c2C1c1ccccc1F` (stereo not given), for which the RP-LC retention time amounted to 648 s.
The figure for `CCC(=O)N1c2ccc(S(=O)(=O)N3CCCCC3)cc2CC1C(=O)NCc1ccc(Cl)cc1` (stereo not given) is 924 s.
The result for `COc1ccc(-c2nc(-c3ccc4c(c3)ncn4CCN3CCCCC3)no2)cc1OC` reads 630 s.
`CN1CCN(C(=O)C2CCCN(c3ncccc3-c3noc(C4CCC4)n3)C2)CC1` (stereo not given) had an RP-LC retention time of 623 s.
On to `O=C(NC1CCCCC1)C1CCc2ncc(-c3ccsc3)n2C1` (stereo not given), for which the RP-LC retention time came out at 584 s.
Compound `O=C(NCc1cc(F)cc(F)c1)C1CCCN(c2cnc3nccnc3c2)C1` (stereo not given) had an RP-LC retention time of 707 s.
The compound `CN1c2cc(F)ccc2C(=O)NC12CCN(C(=O)Nc1ccccc1F)CC2` displayed an RP-LC retention time of 735 s.
The figure for `O=C(NCc1csc(C2CCN(C(=O)Cc3ccc(Cl)cc3)CC2)n1)C1CCC1` is 784 s; for `Fc1cc(F)cc(-c2nnc(Cc3nc(-c4ccncc4)no3)o2)c1` it is 780 s.
The result for `CNC(=O)c1ccccc1Nc1cc(Nc2ccc(N3CCOCC3)cc2OC)ncc1C(F)(F)F` reads 764 s; that for `COc1cccc(-n2c(=O)c(C(=O)Nc3ccc(F)cc3)c(O)c3cccnc32)c1`, 1210 s.
The figure for `Cc1ccc(C(=O)COc2cc(O)c3c(=O)cc(-c4ccccc4)oc3c2)cc1` is 1210 s.
In turn, `Cc1ccc(-c2ccc(-n3nc(C)c(S(=O)(=O)NCc4ccc5c(c4)OCO5)c3C)nn2)cc1` had an RP-LC retention time of 1020 s.
The figure for `CS(=O)(=O)Nc1cccc(OCc2nnc(-c3ccccc3)o2)c1` is 798 s; for `COC(=O)c1ncn2c1C(=O)N(Cc1ccccc1F)C(C)(C(=O)NCc1ccc(C)cc1)C2` (stereo not given) it is 772 s; for `Cc1ccc2c(=O)c(C(=O)N3CCOCC3)cn(CC(=O)NCCC3=CCCCC3)c2n1` it is 713 s.
The figure for `Cc1sc2ccn(Cc3ccc(F)cc3)c(=O)c2c1C(=O)NCc1cccs1` is 945 s; for `COc1ccc(S(=O)(=O)N2CCC(c3nc(C(=O)N4CCOCC4)c(C)o3)CC2)cc1` it is 752 s.
The result for `Cc1c(-c2nnc(C(=O)NCCCN3CCCC3)o2)oc2c(C)cccc12` reads 688 s; that for `Cc1c(CCO)c(=O)n2n1CCCC2`, 618 s.
As to `O=C(Nc1ccccc1)C1CCCN(c2nccnc2Sc2ccccc2)C1` (stereo not given), the RP-LC retention time was 1060 s.
`CCN(CC)CCNc1ccc2nc(C)n3c4ccc(OC)cc4c(=O)c1c23` registered an RP-LC retention time of 610 s.
The result for `Cc1cc(N2CCCCC2)nc(NCCNC(=O)Cc2noc3ccccc23)n1` reads 580 s; that for `Cc1ccsc1C(=O)N1CCc2[nH]cnc2C12CCCCC2`, 606 s.
Consider `COc1cccc2c1oc(=O)c1c(NC(C)=O)nc3c(c12)CCCCC3`, for which the RP-LC retention time was determined as 1020 s.
The result for `COc1cccc2cc(C(=O)N3CCN(c4ccccn4)CC3)oc12` reads 576 s; that for `Cc1noc(C)c1S(=O)(=O)N1CCC2(CC1)CC(Cc1ccc(F)cc1)CCO2` (stereo not given), 1150 s; that for `CC(C)n1c(=O)oc2cc(-c3noc(-c4cccc(Cl)c4)n3)ccc21`, 1180 s.
Take `COc1ccc(C2CC(=O)N(c3ccc(C)c(C)c3)C(=O)C2)cc1OC`: the RP-LC retention time was 893 s.
Consider `CCCNC(=O)N1CCCC1c1nc(-c2cccc(C(F)(F)F)c2)no1` (stereo not given), for which the RP-LC retention time is 963 s.
The figure for `Cc1ccc2c(CN3CCN(c4ccccn4)CC3)cc(=O)oc2c1` is 634 s; for `C=CCN1C(=O)COc2ccc(-c3csc(NC(=O)c4ccc(Br)cc4)n3)cc21` it is 1120 s.
With `CCN(Cc1ccc(OC)cc1)Cc1cc(=O)n2cccc(C)c2n1`, the RP-LC retention time came out at 618 s.
Consider `CC(C)CN(CC(=O)N(Cc1ccco1)CC1CCCO1)C(=O)c1ccc(F)cc1` (stereo not given), for which the RP-LC retention time was determined as 990 s.
The result for `Cn1cc(-c2ccc3nnc(C(F)(F)c4ccc5ncccc5c4)n3n2)cn1` reads 694 s; that for `CCc1cccc(NC(=O)N2CCc3c(c(-c4nc(C5CC5)no4)nn3C)C2)c1`, 928 s.
On to `O=C(NCc1nc(-c2ccccc2)no1)C1CCN(Cc2nc3ccccc3[nH]2)CC1`, for which the RP-LC retention time stood at 581 s.
Compound `Cn1nccc1-c1cccc(-c2noc(-c3ccc(F)cc3)n2)c1` returned an RP-LC retention time of 915 s.
The result for `CN(C)C(=O)C1CCN(c2nc3ccc(-c4ccsc4)nc3s2)CC1` reads 839 s; that for `COc1ccc(C(=O)Nc2cc(OC)nc(OC)n2)cc1`, 798 s; that for `CN(C)CCn1nnc2cc(-c3noc(Cc4cccc(F)c4)n3)ccc21`, 668 s.
The result for `COc1ccc(Cl)cc1NC(=O)N1CCCC(C)(C(=O)NCc2ccccc2C)C1` (stereo not given) reads 1070 s.
The figure for `O=C(Nc1ccc(F)cc1)N1CCN(Cc2nc3cccnc3n2-c2ccc(F)cc2)CC1` is 624 s; for `CC(NS(=O)(=O)c1cc(-c2nc(C(C)(C)C)cs2)cs1)c1ccccc1` (stereo not given) it is 1240 s.
With `COc1cc(OC)c(NC(=O)NCC(c2cccnc2)c2c[nH]c3ccccc23)cc1Cl` (stereo not given), the RP-LC retention time was 706 s.
The result for `COC(=O)c1ccccc1NC(=O)Cn1c(N2CCCC2)nc(C)cc1=O` reads 612 s; that for `O=C(c1ccc(-c2ccc(N3CCCCC3)nc2)cc1)N1CCOCC1`, 607 s.
The result for `COc1ccc(NS(=O)(=O)c2cc(-c3c(C)noc3NC(C)=O)ccc2OC)c(OC)c1` reads 724 s.
The figure for `CCCn1c2ccccc2c2nnc(SCC(=O)Nc3nc(-c4ccccc4)cs3)nc21` is 1080 s; for `CC(=O)Nc1ccc2c(c1)nc(CN1CCOCC1)n2C(C)C` it is 579 s; for `COCCCNC(=O)c1csc(-c2cnccn2)n1` it is 625 s.
On to `Cc1ccc(C(=O)N2CCN(c3nnc4cccc(C)n34)CC2)s1`, for which the RP-LC retention time is 659 s.
Consider `CCOc1ccc(N2C=C(C#N)S(=O)(=O)c3ccccc32)cc1`, for which the RP-LC retention time came to 943 s.
In the case of `CCCCN1CCC(F)(c2nc(-c3ccccc3)no2)CC1`, the RP-LC retention time came to 691 s.
The figure for `CN1C(=O)CC[C@]2(C(=O)NCc3cc(F)ccc3F)CCCC[C@@H]12` is 575 s.
The result for `O=C(NCCCc1ccccc1)C1CCc2nc(N3CCOCC3)ncc2C1` (stereo not given) reads 744 s; that for `O=C(NC1CCCCC1)N1CCC(CCc2nc(C3CCOCC3)no2)CC1`, 709 s.
The result for `O=C(Cn1nc2c(N3CCc4ccccc4C3)nccn2c1=O)Nc1ccccc1Cl` reads 896 s; that for `CCC(C)NC(=O)c1cn(-c2ncccc2-c2nc(-c3ccccc3)no2)cn1` (stereo not given), 858 s; that for `COc1ccc(OC)c(NC(=O)Cn2cccc2-c2nc(-c3ccc4c(c3)OCO4)no2)c1`, 1010 s.
`Cc1cccc(Nc2cc(C)nc3ccnn23)c1` displayed an RP-LC retention time of 613 s.
`CCCNC(=O)N1CCN(c2nc3ccccc3n(Cc3ccccc3)c2=O)CC1`: the RP-LC retention time worked out at 863 s.
The figure for `CCN(CC)S(=O)(=O)c1ccc2c(c1)N(CC(=O)NC)C(=O)C1CCCCN21` (stereo not given) is 753 s.
